The record followed here is patent US5739338A, “N-aryl substituted tetrahydroquinolines having retinoid agonist, retinoid antagonist or retinoid inverse agonist type biological activity” (Allergan, priority 1996, dated 1998).

pIC50, pKd: −log10 of the molar value. Some results are limits rather than exact numbers.

One assay deals with T1, RARα (Homo sapiens, UniProt P10276).
T1 sequence (P10276 1-462): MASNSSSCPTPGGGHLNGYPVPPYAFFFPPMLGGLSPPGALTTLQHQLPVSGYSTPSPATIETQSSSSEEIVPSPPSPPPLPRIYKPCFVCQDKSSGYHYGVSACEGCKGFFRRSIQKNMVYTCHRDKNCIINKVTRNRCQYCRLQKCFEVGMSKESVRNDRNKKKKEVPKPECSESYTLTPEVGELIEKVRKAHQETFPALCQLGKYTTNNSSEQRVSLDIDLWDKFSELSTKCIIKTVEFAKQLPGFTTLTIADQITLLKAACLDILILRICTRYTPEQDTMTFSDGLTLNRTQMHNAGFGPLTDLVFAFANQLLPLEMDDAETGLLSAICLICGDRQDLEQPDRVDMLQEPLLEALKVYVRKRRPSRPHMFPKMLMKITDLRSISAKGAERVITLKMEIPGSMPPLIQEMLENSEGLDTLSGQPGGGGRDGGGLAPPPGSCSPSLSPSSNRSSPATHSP
Briefly: Ligand Binding Assay, RARα. The source says:
(§1) Other assays described below, measure the ability of the compounds of the present invention to bind to, and/or activate various retinoid receptor subtypes. When in these assays a compound binds to a given receptor subtype and activates the transcription of a reporter gene through that subtype, then the compound is considered an agonist of that receptor subtype. […] In the below descried assays the ability of the compounds to bind to RARα, RARβ, RARγ, RXRα, RXRβ and RXRγ receptors, and the ability or inability of the compounds to activate transcription of a reporter gene through these receptor subtypes can be tested.
(§2) A holoreceptor transactivation assay and a ligand binding assay which measure the antagonist/agonist like activity of the compounds of the invention, or their ability to bind to the several retinoid receptor subtypes, respectively, are described in published PCT Application No. WO WO93/11755 (particularly on pages 30-33 and 37-41) published on Jun. 24, 1993, the specification of which is also incorporated herein by reference. A description of the holoreceptor transactivation assay is also provided below.
(§3) CV1 cells (5,000 cells/well) were transfected with an RAR reporter plasmid MTV-TREp-LUC (50 ng) along with one of the RAR expression vectors (10 ng) in an automated 96-well format by the calcium phosphate procedure of Heyman et al. Cell 68, 397-406, (1992). For RXRα and RXRγ transactivation assays, an RXR-responsive reporter plasmid CRBPII-tk-LUC (50 ng) along with the appropriate RXR expression vectors (10 ng) was used substantially as described by Heyman et al. above, and Allegretto et al. J. Biol. Chem. 268, 26625-26633. For RXRβ transactivation assays, an RXR-responsive reporter plasmid CPRE-tk-LUC ([…]) along with RXRβ expression vector ([…]) was used as described in above. These reporters contain DRI elements from human CRBPII and certain DRI elements from promoter, respectively. (see Mangelsdorf et al. The Retinoids: Biology, Chemistry and Medicine, pp 319-349, Raven Press Ltd., New York and Heyman et al., cited above) (1, 8). A β-galactosidase (50 ng) expression vector was used as an internal control in the transfections to normalize for variations in transfection efficiency. The cells were transfected in triplicate for 6 hours, followed by incubation with retinoids for 36 hours, and the extracts were assayed for luciferase and β-galactosidase activities. The detailed experimental procedure for holoreceptor transactivations has been described in Heyman et al. above, and Allegretto et al. cited above. The results obtained in this assay are expressed in EC50 numbers, as they are also in the chimeric receptor transactivation assay. The Heyman et al. Cell 68, 397-406, Allegretto et al. J. Biol. Chem. 268, 26625-26633, and Mangelsdorf et al. The Retinoids: Biology, Chemistry and Medicine, pp 319-349, Raven Press Ltd., New York, are expressly incorporated herein by reference. The results of ligand binding assay are expressed in Kd numbers. (See Cheng et al. Biochemical Pharmacology Vol. 22 pp 3099-3108, expressly incorporated herein by reference.)

Another assay concerns the target T2, RARβ (Homo sapiens, UniProt P10826).
T2 sequence (P10826 1-448 isoform P10826-2): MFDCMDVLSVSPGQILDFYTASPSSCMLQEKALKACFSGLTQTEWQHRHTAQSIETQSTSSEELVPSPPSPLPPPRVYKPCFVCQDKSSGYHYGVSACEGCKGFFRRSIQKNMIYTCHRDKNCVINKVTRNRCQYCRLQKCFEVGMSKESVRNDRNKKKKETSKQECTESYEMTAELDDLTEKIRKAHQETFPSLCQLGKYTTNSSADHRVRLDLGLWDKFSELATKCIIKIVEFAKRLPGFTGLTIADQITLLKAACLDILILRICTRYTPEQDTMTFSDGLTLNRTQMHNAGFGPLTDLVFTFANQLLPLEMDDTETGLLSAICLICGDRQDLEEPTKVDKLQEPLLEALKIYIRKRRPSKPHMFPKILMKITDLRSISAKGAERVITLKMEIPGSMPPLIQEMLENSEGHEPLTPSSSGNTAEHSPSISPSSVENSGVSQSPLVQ
As to the kind of experiment: Ligand Binding Assay, RARβ.
From the text: as §1, §2, §3

A further assay addresses T3, RARγ (Homo sapiens, UniProt P13631).
T3 sequence (P13631 1-454): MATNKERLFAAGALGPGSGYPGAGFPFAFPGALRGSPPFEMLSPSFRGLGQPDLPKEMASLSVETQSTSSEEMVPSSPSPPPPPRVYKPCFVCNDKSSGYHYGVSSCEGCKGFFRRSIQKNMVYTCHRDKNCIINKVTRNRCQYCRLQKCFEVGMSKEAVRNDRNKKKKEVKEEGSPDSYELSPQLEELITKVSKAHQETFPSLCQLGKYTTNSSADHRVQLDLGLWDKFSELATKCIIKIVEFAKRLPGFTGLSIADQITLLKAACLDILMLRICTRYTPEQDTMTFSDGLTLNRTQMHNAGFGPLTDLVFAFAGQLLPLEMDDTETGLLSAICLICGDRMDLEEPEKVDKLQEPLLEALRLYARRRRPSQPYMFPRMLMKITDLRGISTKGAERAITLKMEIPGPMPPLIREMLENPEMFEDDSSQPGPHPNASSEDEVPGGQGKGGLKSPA
As to the kind of experiment: Ligand Binding Assay, RARγ.
From the text: as §1, §2, §3

The subject of assay [1] is RARγ-VP-16 chimeric receptor. As to the kind of experiment: Retinoid inverse agonist assay: inhibition of basal luciferase activity in CV-1 cells cotransfected with RARγ-VP-16, ER-RXRα and ERE-tk-Luc. Format: cell-based. The note with it: RARγ-VP-16, ER-RXRα chimeric receptor, ERE-tk-Luc reporter, read-out: IC50 (inhibition of basal luciferase activity, inverse agonism). From the text: The activity of retinoid inverse agonists can be tested by the procedure of Klein et al. J. Biol. Chem. 271, 22692-22696 (1996) which is expressly incorporated herein by reference.
In this assay, retinoid inverse agonists are able to repress the basal activity of a RARγ-VP-16 chimeric receptor where the constituitively active domain of the herpes simplex virus (HSV) VP-16 is fused to the N-terminus of RARγ. CV-1 cells are cotransfected with RARγ-VP-16, an ER-RXRα chimeric receptor and an ERE-tk-Luc chimeric reporter gene to produce a basal level of luciferase activity, as shown by Nagpal et al. EMBO J. 12, 2349-2360 […] expressly incorporated herein by reference. Retinoid inverse agonists are able to inhibit the basal luciferase activity in these cells in a dose dependent manner and IC50 s measured.

One may read the pKd as −log10 of the Kd, conventionally taken in molar units. Lower therefore signals a high Kd. The term pIC50 denotes −log10 of the IC50, conventionally taken in molar units.

For the compound `Cc1ccc(N2CCC(C)(C)c3ccc(/C=C/c4ccc(C(=O)O)cc4)cc32)cc1` [Compound 14, (E)-4-(2-(4,4-dimethyl-1,2,3,4-tetrahydro-N-(4-methylphenyl)quinolin-7-yl)ethenyl)benzoic acid], the pKd is 7.96 on RARα, 8.30 on RARβ and 7.82 on RARγ.

For `Cc1ccc(N2CCC(C)(C)c3ccc(C#Cc4ccc(C(=O)O)cc4)cc32)cc1` [Compound 5, 4-(2-(4,4-Dimethyl-1,2,3,4-tetrahydro-N-(4-methylphenyl)quinolin-7-yl)ethynyl)benzoic Acid], the pKd on RARα was 7.89; on RARβ, 8.52; at RARγ it was 8.05. Further, the pIC50 in assay [1] is 9.00.

Consider `CC1(C)CCN(c2ccccc2)c2cc(C#Cc3ccc(C(=O)O)cc3)ccc21` [Compound 10, 4-(2-(4,4-Dimethyl-1,2,3,4-tetrahydro-N-phenylquinolin-7-yl)ethynyl)benzoicAcid], for which the pKd at RARα is 6.83; on RARβ, 7.74; at RARγ, 7.28.

In the case of `Cc1ccc(N2CCC(C)(C)c3ccc(C(=O)Nc4ccc(C(=O)O)cc4)cc32)cc1` [Compound 25, (4,4-dimethyl-1,2,3,4-tetrahydro-N-(4-methylphenyl)quinolin-7-carboxyl)-4-carboxyanilide], the figures for the pKd on RARα, at RARβ and on RARγ were 7.57, less than 6.00 and less than 6.00, respectively.

As for `Cc1ccc(N2CCC(C)(C)c3ccc(C#Cc4ccc(C(=O)O)c(F)c4)cc32)cc1` [Compound 12, 4-(2-(4,4-Dimethyl-1,2,3,4-tetrahydro-N-(4-methylphenyl)quinolin-7-yl)ethynyl)-2-fluorobenzoic Acid], the pKd at RARα was 7.00; at RARβ, 7.08; on RARγ, 6.28.

For the compound `Cc1ccc(N2C(=O)CC(C)(C)c3ccc(C#Cc4ccc(C(=O)O)cc4)cc32)cc1` [Compound 22, 4-(2-(4,4-Dimethyl-3,4-dihydro-N-(4-methylphenyl)-2(1H)-quinolinon-7-yl)ethynyl)benzoic Acid], the pKd on RARα is 7.23; on RARβ, 7.77; at RARγ it was 7.49.
